# Experiment: Antagonist activity at Escherichia coli UT189 FimH in guinea pig red blood cells assessed as disaggregation of bacteria after 600 secs by aggregometry assay
row,SMILES,IC50
1,COC(=O)c1ccc(-c2cc(Cl)c(O[C@H]3O[C@H](CO)[C@@H](O)[C@H](O)[C@@H]3O)c(Cl)c2)cc1,14 µM
2,O=C(O)c1ccc(-c2ccc(O[C@H]3O[C@H](CO)[C@@H](O)[C@H](O)[C@@H]3O)cc2Cl)cc1,17 µM
3,COC(=O)c1ccc(-c2ccc(O[C@H]3O[C@H](CO)[C@@H](O)[C@H](O)[C@@H]3O)cc2Cl)cc1,41 µM
4,O=C(O)c1ccc(-c2ccc(O[C@H]3O[C@H](CO)[C@@H](O)[C@H](O)[C@@H]3O)cc2)cc1,45 µM
5,O=C(O)c1ccc(-c2cccc(O[C@H]3O[C@H](CO)[C@@H](O)[C@H](O)[C@@H]3O)c2)cc1,45 µM

# More lines, now with the values ahead:
row,IC50,SMILES
1,9 µM,COC(=O)c1ccc(-c2ccc(O[C@H]3O[C@H](CO)[C@@H](O)[C@H](O)[C@@H]3O)c(Cl)c2)cc1
2,10 µM,O=C(O)c1ccc(-c2ccc(O[C@H]3O[C@H](CO)[C@@H](O)[C@H](O)[C@@H]3O)c(Cl)c2)cc1
3,31 µM,COC(=O)c1ccc(-c2ccc(Cl)c(O[C@H]3O[C@H](CO)[C@@H](O)[C@H](O)[C@@H]3O)c2)cc1

# — BindingDB's records for doi:10.1021/jm101011y (University of Basel, 2010)
